Measured values from the METLIN SMRT retention time set (Domingo-Almenara et al. 2019).

Experiment: gradient 5% acetonitrile 3 min, to 50% in 2 min, to 85% in 15 min, held 3 min, 100 µL/min
Details: column: Zorbax Extend-C18 2.1 x 50 mm; eluents: water / acetonitrile, 0.1% formic acid
Procedure, shortened: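 Over 3 months, pure standards in mixtures of ~100 molecules were run by HPLC coupled to a quadrupole time-of-flight mass spectrometer in positive and negative ionization mode. The column was a Zorbax Extend-C18 (2.1 × 50 mm, 1.8 μm) at 100 μL/min, eluted with water and acetonitrile each holding 0.1% formic acid, with 40 μL dead and 900 μL dwell volumes. Retention time was determined from adduct peaks chosen by software and checked manually.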

| SMILES | RP-LC retention time [s] |
| --- | --- |
| Cc1cc(C(F)(F)F)nc(Nc2nc(C)c3ccccc3n2)n1 | 679 |
| Cc1sc2ccn(Cc3ccc(F)cc3)c(=O)c2c1C(=O)NC(C)C | 814 |
| O=C(Cn1cc(S(=O)(=O)c2ccccc2)c2ccccc21)NCc1ccc2c(c1)OCO2 | 829 |
| O=C(NCC(c1cccnc1)c1c[nH]c2ccccc12)Nc1ccc(Br)cc1F (stereo not given) | 716 |
| COc1ccc(Cc2nc3nccc(-c4cccc(OC)c4)n3n2)cc1 | 887 |
| Cc1cc(C2CCCN2C(=O)NC(C)(C)C)no1 (stereo not given) | 752 |
| COC(=O)c1cnc2nc(C)ccc2c1Nc1ccccc1 | 627 |
| O=c1n(Cc2ccccc2Cl)nc2c(S(=O)(=O)N3CCc4ccccc4C3)cccn12 | 1030 |
| Cc1ccc(-c2cn3ccccc3n2)cc1NS(=O)(=O)c1ccc(Cl)cc1 | 692 |
| Cc1nc(-c2ccccc2)sc1C(=O)N1CCCC1 | 824 |
| COc1ccc(C(=O)c2c(N)c(C#N)c3ccccn23)cc1 | 777 |
| Cn1nc(C(=O)N2CCCC(C(=O)NC3CC3)C2)c2c1CCN(C(=O)CCc1ccccc1)C2 (stereo not given) | 671 |
| COc1cccc(CNC(=O)Nc2c(-c3cccc(C)c3)nc3ccccn23)c1 | 673 |
| O=C1CCCc2c1cc(C(=O)NCc1ccccn1)c(=O)n2-c1ccc(F)cc1 | 630 |
| CC(C(=O)NCCc1ccco1)n1c(=O)c(C(F)(F)F)nc2ccccc21 (stereo not given) | 698 |
| CC(C)NC(=O)C1CCCN(C(=O)Nc2ccc(NC(=O)Nc3ccccc3F)cc2)C1 (stereo not given) | 735 |
| O=C(c1cc2cc(Cl)ccc2[nH]1)N1CCOCC1 | 860 |
| Fc1ccc(F)c(-c2nc(-c3cccc(-c4ccn[nH]4)c3)no2)c1 | 966 |
| COc1ccc(-c2noc(Cc3nnc(-c4ccc(F)cc4)o3)n2)cc1OC | 889 |
| O=C(Cn1cccc(-c2nc(-c3ccc(Cl)cc3)no2)c1=O)Nc1ccc(F)cc1 | 956 |

| SMILES | RP-LC retention time [s] |
| --- | --- |
| CSc1nc2cc(Oc3cccc(Cl)c3Cl)c(Cl)cc2[nH]1 | 1080 |
| Cn1c(=O)n(CC(=O)O)c(=O)c2c1nc1n2CCCN1c1ccc(F)cc1 | 632 |
| CCN1C(=O)C2CC3(CCN(C(=O)CN4CCCC4=O)CC3)CN2C1=O (stereo not given) | 600 |
| O=C(NCc1ccc(F)cc1F)c1ccc2c(c1)nc1n2CCN(C2CCCCC2)C1=O | 806 |
| CCOc1c(Br)cc(C(=O)Nc2ccc(C(=O)O)cc2)cc1C(=O)c1ccc(C)cc1 | 1130 |
| O=C(Cn1cccc1-c1nc(-c2ccc(Cl)cc2)cs1)N1CCOCC1 | 1040 |
| O=c1c(NCc2ccccc2Cl)nc2ccncc2n1Cc1ccccc1 | 747 |
| COc1ccc2c(c1)C1(CCN(C(=O)c3ccccc3F)C1)C(=O)N2C (stereo not given) | 752 |
| Cc1nc(C)c(C(=O)N2CCCC(n3c(C)cnc3C3CCC3)C2)s1 (stereo not given) | 591 |
| CCOc1cc(-c2ccc(Cl)cc2)nc2ccc(NC(C)=O)cc12 | 686 |
| O=C(CCS(=O)(=O)c1ccccc1)N1CC(c2nc(-c3cnccn3)no2)C1 | 606 |
| COc1ccc(Nc2c(-c3ccc(Cl)cc3)nc3cnccn23)cc1OC | 828 |
| COc1ccc(-c2nnc(-c3cc(S(=O)(=O)NC(C)C)ccc3Cl)o2)cc1 | 967 |
| COc1ccccc1NC(=O)N1CCCC(C)(C(=O)NCc2ccccc2C)C1 (stereo not given) | 859 |
| CC1Cc2ccccc2N1C(=O)c1ccc(Cl)cc1 (stereo not given) | 972 |
| CC(C)NC(=O)c1ccc(OCC2CCN(C(=O)c3ccsc3)CC2)cc1 | 797 |
| CC(C)NC(=O)C1CCN(S(C)(=O)=O)c2cc(Cl)ccc2O1 (stereo not given) | 777 |
| COc1ccc(-c2noc(CCC(=O)O)n2)cc1 | 693 |
| Fc1ccc(-n2cc(-c3noc(-c4ccccc4)n3)nn2)cc1 | 1040 |

The remaining lines, values ahead:

| RP-LC retention time [s] | SMILES |
| --- | --- |
| 871 | CC1=C(c2ccc(Cl)cc2)S(=O)(=O)N=C1N1CCCN(C(=O)NC(C)(C)C)CC1 |
| 748 | CCn1nc(CNC(=O)C2CCC2)c2ccccc21 |
| 611 | Cc1ccc(N2CC(c3noc(-c4cccn4C)n3)CC2=O)cc1 (stereo not given) |
| 926 | CCc1c(C2CCN(C(=O)Nc3ccc(F)c(Cl)c3)CC2)noc1N |
| 984 | COc1ccc(NC(=O)c2cn(-c3cc(N4CCCCC4)ncn3)cn2)cc1Cl |
| 1030 | CCCn1c(=O)c(N2CCC(NC(=O)Nc3cccc(C)c3)CC2)nc2ccccc21 |
| 566 | CCc1nccn1Cc1noc(-c2ccco2)n1 |
| 888 | Cc1ccc(S(=O)(=O)N2CCC3(CC2)CC(C)(O)CCO3)cc1Cl (stereo not given) |
| 1160 | COC(=O)c1cc(C)nc2c1c(=O)n(Cc1ccc(C)cc1)c(=O)n2Cc1ccco1 |
| 709 | Nc1ncnc2c1c(-c1cnc3[nH]ccc3c1)nn2C1CCCC1 |
| 928 | Cc1nc(N2CCN(C(=O)CCCc3ccccc3)CC2)cc(-n2cccn2)n1 |
| 656 | CCOC(=O)c1ccc(NC(=O)CSc2ccc3nnc(-c4ccccn4)n3n2)cc1 |
| 957 | Cc1cccc(N2CCN(C(=O)CN3CCN(Cc4ccc(F)cc4Cl)C3=O)CC2)c1 |
| 644 | CC(NC(=O)C1CCN(c2cc(N3CCCC3)ncn2)CC1)c1ccccc1 (stereo not given) |
| 633 | CCCC(=O)Nc1ccc2nc(N3CCN(c4ccc(OC)cc4)CC3)cc(C(=O)O)c2c1 |
| 908 | O=C(CN1CCN(Cc2ccc(F)cc2Cl)C1=O)N1CCN(c2ccc(F)cc2)CC1 |
| 1070 | COc1cccc(N2CCN(S(=O)(=O)c3cc(-c4nc(C)cs4)cs3)CC2)c1 |
| 878 | O=C(c1ccc(Br)o1)N1CCN(c2ccc(=O)n(-c3cccc(Cl)c3)n2)CC1 |
| 1090 | Cc1ccc2c(c1)N(C(=O)Cn1ccc3ccn(Cc4ccccc4C)c3c1=O)CCO2 |
| 568 | Cc1ccsc1CN1CCc2[nH]nc(C(=O)N3CCOCC3)c2C1 |
| 816 | CCOc1ccc(NC(=O)Cn2nc3c(N4CCSCC4)nccn3c2=O)cc1 |
| 1070 | CCCNC(=O)c1cnn(-c2ccc(-c3nc(C(C)(C)C)no3)cn2)c1C |
| 991 | Cn1cc(C(=O)NCCC2=CCCCC2)c2nn(-c3ccccc3)c(=O)c-2c1 |
| 1000 | O=C(NCc1ccco1)C1CCN(c2nc3ccccc3nc2C(F)(F)F)CC1 |
| 826 | CCC(C(=O)NCCOC)n1nc(C)c2sc3ccccc3c2c1=O (stereo not given) |
| 858 | COc1ccccc1CNC(=O)Cn1ccc2ccc(N3CCOCC3)nc21 |

| RP-LC retention time [s] | SMILES |
| --- | --- |
| 793 | Cc1ccc(CNC(=O)c2cc(C)no2)cc1 |
| 704 | COc1ccc(NC(=O)C2CCCN(c3nnc4ccccn34)C2)cc1C(F)(F)F (stereo not given) |
| 661 | CC1(C)Cc2cccc(OCC(=O)NCc3n[nH]c(=O)c4ccccc34)c2O1 |
| 990 | Cn1nccc1C(=O)N1CCc2cc(-c3csc(C4CC4)n3)ccc21 |
| 1280 | CCCOc1nc2ccccc2nc1N1CCCC(C(=O)Nc2ccc(OC)cc2OC)C1 (stereo not given) |
| 705 | COc1ccccc1NC(=O)Cn1cc(C(=O)N2CCCC2)c(=O)c2ccc(C)nc21 |
| 584 | O=C(NCCCN1CCN(C2CCCCC2)CC1)C1CCCN(C(=O)c2cccc(Cl)c2)C1 (stereo not given) |
| 1100 | CCCn1cc(C2=CCN(S(=O)(=O)Cc3ccc(Cl)cc3)CC2)c2cccnc21 |
| 982 | CCOC(=O)c1nc(N(C)c2cccc(Cl)c2)c2ccccc2n1 |
| 590 | COC(=O)C1=C(CN2CCOCC2)NC(=O)NC1c1ccccc1C (stereo not given) |
| 636 | COc1ccc(-c2c(C)noc2NC(C)=O)cc1S(=O)(=O)Nc1ccc(S(N)(=O)=O)cc1 |
| 772 | COC(=O)c1ccc2c(=O)n(Cc3ccc(F)cc3)c(N3CCN(c4ccccn4)CC3)nc2c1 |
| 837 | CN(Cc1ccccc1)Cc1nc(-c2ccc(N3CCSCC3)nc2)no1 |
| 595 | CC1(c2nc(C3CC3)no2)CCCN(C(=O)c2ccc3nc[nH]c3c2)C1 (stereo not given) |
| 1280 | COc1cccc(-c2nc(C3CCN(S(=O)(=O)c4cc(C)c(C)cc4C)CC3)no2)c1 |
| 851 | Cc1cc(C)cc(N2CCC(NC(=O)NCc3cccc(F)c3)C2=O)c1 (stereo not given) |
| 681 | Cc1cccc(N2CCN(C(=O)C3=CCN(Cc4ccccc4)CC3)CC2)c1 |
| 1160 | CCOC(=O)c1noc2nc(C)nc(NCc3ccc(Cl)cc3)c12 |
| 845 | CCN1C(=O)c2cc(C(=O)NCCCc3ccccc3)nn2CC1(C)C(=O)NC1CCCC1 (stereo not given) |
| 786 | CCC(C)C(NC(=O)c1ccc(C)cc1C)C(=O)Nc1nc2ccccc2[nH]1 (stereo not given) |
| 1350 | CCOC(=O)c1c(C)oc2nc(C)nc(Nc3cc(C)ccc3OC)c12 |
| 1150 | CCCCCCNC(=O)C1CCCN(c2ncc(-c3ccccc3)cn2)C1 (stereo not given) |
| 895 | CCc1nc2cc(-c3noc(-c4ccc(C)c(NC(C)=O)c4)n3)ccc2o1 |
| 931 | CN(CCc1noc(COc2ccccc2F)n1)C(=O)CCc1ccccc1 |
| 738 | CCOC(=O)c1noc2ncnc(NCCCN3CCN(c4cc(C)ccc4C)CC3)c12 |
